Laboratory results: ChEMBL document CHEMBL1201862, “PubChem BioAssay data set” (2004)
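Following 48 hours of exposure in 96-well plates, responses at five concentrations were used to interpolate endpoints linearly. At the GI50, growth is halved.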 The source made the active and inactive calls. Cut-off read from the data, not from the text of the source: active = GI50 up to about 1.1 µM and inactive = higher.

How the values were obtained:
Experiment in all cases: inhibition of tumour cell growth, NCI panel, 48 h
OVCAR-5 = test system: OVCAR-5
MDA-MB-435 = test system: MDA-MB-435
SR = test system: SR
RXF 393 = test system: RXF 393
NCI-H226 = test system: NCI-H226
SF-539 = test system: SF-539
SF-268 = test system: SF-268
OVCAR-4 = test system: OVCAR-4
DU-145 = test system: DU-145
NCI/ADR-RES = test system: NCI/ADR-RES
NCI-H23 = test system: NCI-H23
PC-3 = test system: PC-3
CAKI-1 = test system: CAKI-1
MDA-MB-231 = test system: MDA-MB-231
SN12C = test system: SN12C
UO-31 = test system: UO-31
HOP-62 = test system: HOP-62
MDA-N = test system: MDA-N
SK-MEL-2 = test system: SK-MEL-2
CCRF-CEM = test system: CCRF-CEM
786-0 = test system: 786-0
HCT-15 = test system: HCT-15
SK-OV-3 = test system: SK-OV-3
ACHN = test system: ACHN
UACC-257 = test system: UACC-257
TK-10 = test system: TK-10
T47D = test system: T47D
K562 = test system: K562
SNB-19 = test system: SNB-19
BT-549 = test system: BT-549
HOP-92 = test system: HOP-92
SF-295 = test system: SF-295
HT-29 = test system: HT-29
U-251 = test system: U-251
HL-60 = test system: HL-60
A549 = test system: A549
HCT-116 = test system: HCT-116
HCC 2998 = test system: HCC 2998
OVCAR-3 = test system: OVCAR-3
MOLT-4 = test system: MOLT-4
LOX IMVI = test system: LOX IMVI
UACC-62 = test system: UACC-62
IGROV-1 = test system: IGROV-1
M14 = test system: M14
KM12 = test system: KM12
EKVX = test system: EKVX
OVCAR-8 = test system: OVCAR-8
NCI-H460 = test system: NCI-H460
SNB-75 = test system: SNB-75
MCF7 = test system: MCF7
SK-MEL-28 = test system: SK-MEL-28
A498 = test system: A498
RPMI-8226 = test system: RPMI-8226
Hs-578T = test system: Hs-578T
SK-MEL-5 = test system: SK-MEL-5
COLO 205 = test system: COLO 205
Malme-3M = test system: Malme-3M
SW-620 = test system: SW-620
NCI-H522 = test system: NCI-H522

Q: With Cc1c(C(=O)c2ccccc2)[n+]([O-])c2cc(Cl)c(Cl)cc2[n+]1[O-] as the compound, how does the GI50 (OVCAR-5) read?
A: 17.9 µM (inactive)

Q: What about the GI50 (MDA-MB-435) of the same compound?
A: 11.9 µM (inactive)

Q: And the GI50 (SR)?
A: 1.54 µM (inactive)

Q: And the GI50 (RXF 393)?
A: 6.08 µM (inactive)

Q: And the GI50 (NCI-H226)?
A: 2.51 µM (inactive)

Q: And the GI50 (SF-539)?
A: 17.2 µM (inactive)

Q: And the GI50 (SF-268)?
A: 15.3 µM (inactive)

Q: And the GI50 (OVCAR-4)?
A: 4.11 µM (inactive)

Q: What about the GI50 (DU-145) of the same compound?
A: 16.1 µM (inactive)

Q: What about the GI50 (NCI/ADR-RES) of the same compound?
A: 17.9 µM (inactive)

Q: And the GI50 (NCI-H23)?
A: 2.39 µM (inactive)

Q: And the GI50 (PC-3)?
A: 17.4 µM (inactive)

Q: What about the GI50 (CAKI-1) of the same compound?
A: 3.03 µM (inactive)

Q: What about the GI50 (MDA-MB-231) of the same compound?
A: 11.1 µM (inactive)

Q: And the GI50 (SN12C)?
A: 15.2 µM (inactive)

Q: What about the GI50 (UO-31) of the same compound?
A: 11.8 µM (inactive)

Q: And the GI50 (HOP-62)?
A: 15.9 µM (inactive)

Q: What about the GI50 (MDA-N) of the same compound?
A: 12.3 µM (inactive)

Q: What about the GI50 (SK-MEL-2) of the same compound?
A: 5.92 µM (inactive)

Q: What about the GI50 (CCRF-CEM) of the same compound?
A: 19.3 µM (inactive)

Q: What about the GI50 (786-0) of the same compound?
A: 15.8 µM (inactive)

Q: What about the GI50 (HCT-15) of the same compound?
A: 1.99 µM

Q: What about the GI50 (SK-OV-3) of the same compound?
A: 19.6 µM (inactive)

Q: What about the GI50 (ACHN) of the same compound?
A: 14.3 µM (inactive)

Q: What about the GI50 (UACC-257) of the same compound?
A: 3.17 µM (inactive)

Q: What about the GI50 (TK-10) of the same compound?
A: 11.5 µM (inactive)

Q: And the GI50 (T47D)?
A: 0.889 µM (active)

Q: What about the GI50 (K562) of the same compound?
A: 4.01 µM (inactive)

Q: What about the GI50 (SNB-19) of the same compound?
A: 16.6 µM (inactive)

Q: What about the GI50 (BT-549) of the same compound?
A: 16.9 µM (inactive)

Q: What about the GI50 (HOP-92) of the same compound?
A: 2.96 µM (inactive)

Q: What about the GI50 (SF-295) of the same compound?
A: 14.9 µM (inactive)

Q: And the GI50 (HT-29)?
A: 14.4 µM (inactive)

Q: What about the GI50 (U-251) of the same compound?
A: 15.6 µM (inactive)

Q: What about the GI50 (HL-60) of the same compound?
A: 2.04 µM (inactive)

Q: And the GI50 (A549)?
A: 13 µM (inactive)

Q: What about the GI50 (HCT-116) of the same compound?
A: 13.5 µM (inactive)

Q: And the GI50 (HCC 2998)?
A: 1.56 µM (inactive)

Q: What about the GI50 (OVCAR-3) of the same compound?
A: 12.4 µM (inactive)

Q: What about the GI50 (MOLT-4) of the same compound?
A: 2.73 µM (inactive)

Q: What about the GI50 (LOX IMVI) of the same compound?
A: 3.72 µM (inactive)

Q: And the GI50 (UACC-62)?
A: 11.4 µM (inactive)

Q: And the GI50 (IGROV-1)?
A: 1.97 µM (inactive)

Q: What about the GI50 (M14) of the same compound?
A: 2.87 µM (inactive)

Q: What about the GI50 (KM12) of the same compound?
A: 8.65 µM (inactive)

Q: What about the GI50 (EKVX) of the same compound?
A: 13.5 µM (inactive)

Q: And the GI50 (OVCAR-8)?
A: 10 µM (inactive)

Q: What about the GI50 (NCI-H460) of the same compound?
A: 15.9 µM (inactive)

Q: What about the GI50 (SNB-75) of the same compound?
A: 0.0368 µM (active)

Q: What about the GI50 (MCF7) of the same compound?
A: 10.7 µM (inactive)

Q: And the GI50 (SK-MEL-28)?
A: 14.7 µM (inactive)

Q: What about the GI50 (A498) of the same compound?
A: 19.6 µM (inactive)

Q: What about the GI50 (RPMI-8226) of the same compound?
A: 4.7 µM (inactive)

Q: What about the GI50 (Hs-578T) of the same compound?
A: 6.34 µM (inactive)

Q: What about the GI50 (SK-MEL-5) of the same compound?
A: 15.2 µM (inactive)

Q: And the GI50 (COLO 205)?
A: 18.1 µM (inactive)

Q: CCOC(=O)CC[C@H](NC(=O)c1ccc(CNc2nc3cc(C(F)(F)F)ccc3nc2C(=O)OCC)cc1)C(=O)OCC was tested. Which GI50 (OVCAR-5) did it give?
A: 34.7 µM (inactive)

Q: What about the GI50 (MDA-MB-435) of the same compound?
A: > 73.6 µM (inactive)

Q: And the GI50 (SR)?
A: > 100 µM (inactive)

Q: What about the GI50 (RXF 393) of the same compound?
A: 27.7 µM (inactive)

Q: What about the GI50 (SF-539) of the same compound?
A: 4.59 µM (inactive)

Q: And the GI50 (SF-268)?
A: 12.4 µM (inactive)

Q: And the GI50 (DU-145)?
A: > 81.8 µM (inactive)

Q: And the GI50 (Malme-3M)?
A: 18.8 µM (inactive)

Q: And the GI50 (NCI/ADR-RES)?
A: 26.5 µM (inactive)

Q: And the GI50 (SW-620)?
A: > 61.2 µM (inactive)

Q: What about the GI50 (NCI-H23) of the same compound?
A: 26.1 µM (inactive)

Q: And the GI50 (PC-3)?
A: 30.3 µM (inactive)

Q: What about the GI50 (CAKI-1) of the same compound?
A: 14.3 µM (inactive)

Q: And the GI50 (MDA-MB-231)?
A: 13.3 µM (inactive)

Q: What about the GI50 (SN12C) of the same compound?
A: > 89.9 µM (inactive)

Q: What about the GI50 (UO-31) of the same compound?
A: 25.2 µM (inactive)

Q: And the GI50 (NCI-H522)?
A: 15.7 µM (inactive)

Q: What about the GI50 (HOP-62) of the same compound?
A: 9.25 µM (inactive)

Q: What about the GI50 (MDA-N) of the same compound?
A: > 100 µM (inactive)

Q: And the GI50 (SK-MEL-2)?
A: > 48.2 µM (inactive)

Q: And the GI50 (CCRF-CEM)?
A: > 100 µM (inactive)

Q: What about the GI50 (786-0) of the same compound?
A: 7.19 µM (inactive)

Q: What about the GI50 (HCT-15) of the same compound?
A: 76.2 µM

Q: What about the GI50 (SK-OV-3) of the same compound?
A: 31.4 µM (inactive)

Q: What about the GI50 (ACHN) of the same compound?
A: 33.8 µM (inactive)

Q: What about the GI50 (UACC-257) of the same compound?
A: 42.8 µM (inactive)

Q: And the GI50 (TK-10)?
A: 15.4 µM (inactive)

Q: What about the GI50 (T47D) of the same compound?
A: 18.1 µM (inactive)

Q: And the GI50 (K562)?
A: 70.3 µM (inactive)

Q: And the GI50 (SNB-19)?
A: 9.14 µM (inactive)

Q: And the GI50 (BT-549)?
A: 18.1 µM (inactive)

Q: What about the GI50 (HOP-92) of the same compound?
A: 13 µM (inactive)

Q: What about the GI50 (SF-295) of the same compound?
A: 8.34 µM (inactive)

Q: And the GI50 (HT-29)?
A: > 100 µM (inactive)

Q: And the GI50 (U-251)?
A: 5.87 µM (inactive)

Q: And the GI50 (HL-60)?
A: > 100 µM (inactive)

Q: And the GI50 (A549)?
A: 34.7 µM (inactive)

Q: What about the GI50 (HCT-116) of the same compound?
A: > 56.1 µM (inactive)

Q: And the GI50 (OVCAR-3)?
A: > 38.8 µM (inactive)

Q: And the GI50 (MOLT-4)?
A: > 100 µM (inactive)

Q: What about the GI50 (LOX IMVI) of the same compound?
A: > 100 µM (inactive)

Q: And the GI50 (UACC-62)?
A: 16.1 µM (inactive)

Q: And the GI50 (IGROV-1)?
A: 21 µM (inactive)

Q: And the GI50 (M14)?
A: > 43.7 µM (inactive)

Q: And the GI50 (KM12)?
A: 52.2 µM (inactive)

Q: What about the GI50 (EKVX) of the same compound?
A: 17.3 µM (inactive)

Q: What about the GI50 (OVCAR-8) of the same compound?
A: 9.42 µM (inactive)

Q: What about the GI50 (NCI-H460) of the same compound?
A: 15.5 µM (inactive)

Q: And the GI50 (SNB-75)?
A: 12.8 µM (inactive)

Q: And the GI50 (MCF7)?
A: 19 µM (inactive)

Q: And the GI50 (SK-MEL-28)?
A: > 69.8 µM (inactive)

Q: And the GI50 (A498)?
A: > 100 µM (inactive)

Q: And the GI50 (RPMI-8226)?
A: 5.58 µM (inactive)

Q: What about the GI50 (Hs-578T) of the same compound?
A: 7.16 µM (inactive)

Q: And the GI50 (SK-MEL-5)?
A: 27.9 µM (inactive)

Q: What about the GI50 (COLO 205) of the same compound?
A: > 100 µM (inactive)
